Data as given in PubChem BioAssay AID2060505 (Molecular Pharmacology Branch, DTP, NCI, 2025).

Test system: 633275-114-R-J1-PDC complex spheroids, viability
Test: Anticancer human tumor 633275-114-R-J1-PDC patient-derived endometrial adenocarcinoma cell line growth inhibition [GQUAD]
Conditions: for IC50: curve of first compound; for viability, T/C: stronger effect = lower value; active = viability on the fitted dose curve at most 10% of control; inactive = the rest
Procedure, shortened: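 Tumor cells were grown as complex spheroids with HUVEC endothelial cells and mesenchymal stem cells as stroma. G-quadruplex stabilizers were combined with targeted agents over half-log dilutions from near the clinical Cmax, or from 10 microM.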

[1] = second compound 0.0316 µM, first compound 0.000999 µM
[2] = second compound 0.0316 µM, first compound 0.00316 µM
[3] = second compound 0.0316 µM, first compound 0.00999 µM
[4] = second compound 0.0316 µM, first compound 0.0316 µM
[5] = second compound 0.0316 µM, first compound 0.0999 µM
[6] = second compound 0.0316 µM, first compound 0.316 µM
[7] = second compound 0.1 µM, first compound 0.000999 µM
[8] = second compound 0.1 µM, first compound 0.00316 µM
[9] = second compound 0.1 µM, first compound 0.00999 µM
[10] = second compound 0.1 µM, first compound 0.0316 µM
[11] = second compound 0.1 µM, first compound 0.0999 µM
[12] = second compound 0.1 µM, first compound 0.316 µM
[13] = second compound 0.316 µM, first compound 0.000999 µM
[14] = second compound 0.316 µM, first compound 0.00316 µM
[15] = second compound 0.316 µM, first compound 0.00999 µM
[16] = second compound 0.316 µM, first compound 0.0316 µM
[17] = second compound 0.316 µM, first compound 0.0999 µM
[18] = second compound 0.316 µM, first compound 0.316 µM
[19] = second compound 1 µM, first compound 0.000999 µM
[20] = second compound 1 µM, first compound 0.00316 µM
[21] = second compound 1 µM, first compound 0.00999 µM
[22] = second compound 1 µM, first compound 0.0316 µM
[23] = second compound 1 µM, first compound 0.0999 µM
[24] = second compound 1 µM, first compound 0.316 µM
[25] = second compound 3.16 µM, first compound 0.000999 µM
[26] = second compound 3.16 µM, first compound 0.00316 µM
[27] = second compound 3.16 µM, first compound 0.00999 µM
[28] = second compound 3.16 µM, first compound 0.0316 µM
[29] = second compound 3.16 µM, first compound 0.0999 µM
[30] = second compound 3.16 µM, first compound 0.316 µM
[31] = second compound 10 µM, first compound 0.000999 µM
[32] = second compound 10 µM, first compound 0.00316 µM
[33] = second compound 10 µM, first compound 0.00999 µM
[34] = second compound 10 µM, first compound 0.0316 µM
[35] = second compound 10 µM, first compound 0.0999 µM
[36] = second compound 10 µM, first compound 0.316 µM
[37] = second compound 0.0316 µM, first compound 0.1 µM
[38] = second compound 0.0316 µM, first compound 1 µM
[39] = second compound 0.0316 µM, first compound 3.16 µM
[40] = second compound 0.0316 µM, first compound 10 µM
[41] = second compound 0.1 µM, first compound 0.1 µM
[42] = second compound 0.1 µM, first compound 1 µM
[43] = second compound 0.1 µM, first compound 3.16 µM
[44] = second compound 0.1 µM, first compound 10 µM
[45] = second compound 0.316 µM, first compound 0.1 µM
[46] = second compound 0.316 µM, first compound 1 µM
[47] = second compound 0.316 µM, first compound 3.16 µM
[48] = second compound 0.316 µM, first compound 10 µM
[49] = second compound 1 µM, first compound 0.1 µM
[50] = second compound 1 µM, first compound 1 µM
[51] = second compound 1 µM, first compound 3.16 µM
[52] = second compound 1 µM, first compound 10 µM
[53] = second compound 3.16 µM, first compound 0.1 µM
[54] = second compound 3.16 µM, first compound 1 µM
[55] = second compound 3.16 µM, first compound 3.16 µM
[56] = second compound 3.16 µM, first compound 10 µM
[57] = second compound 10 µM, first compound 0.1 µM
[58] = second compound 10 µM, first compound 1 µM
[59] = second compound 10 µM, first compound 3.16 µM
[60] = second compound 10 µM, first compound 10 µM
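Also: spheroids exposed to the agents for seven days.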
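For viability, T/C in this document: percent of DMSO vehicle control viability which is 100%.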

Cn1ncnc1[C@H]1c2n[nH]c(=O)c3cc(F)cc(c23)N[C@@H]1c1ccc(F)cc1 + Cc1cnc(CNC(=O)c2c(=O)c3ccc(N4CCCN(C)CC4)nc3n3c2sc2ccccc23)cn1
< 0.999 nM: IC50 (second compound 0.1 µM) | IC50 (second compound 0.316 µM) | IC50 (second compound 1 µM) | IC50 (second compound 3.16 µM) | IC50 (second compound 10 µM)
inactive: viability, T/C [1] 64% | viability, T/C [2] 63.3% | viability, T/C [3] 63.2% | viability, T/C [4] 58.9% | viability, T/C [5] 46.5% | viability, T/C [6] 44.3% | viability, T/C [7] 47.9% | viability, T/C [8] 51.3% | viability, T/C [9] 50.2% | viability, T/C [10] 42.2% | viability, T/C [11] 39.3% | viability, T/C [12] 38.2% | viability, T/C [13] 41.9% | viability, T/C [14] 43.7% | viability, T/C [15] 43.2% | viability, T/C [16] 37.7% | viability, T/C [17] 37.6% | viability, T/C [18] 34.8% | viability, T/C [19] 39.1% | viability, T/C [20] 37.4% | viability, T/C [21] 37.9% | viability, T/C [22] 35% | viability, T/C [23] 34% | viability, T/C [24] 34% | viability, T/C [25] 31.8% | viability, T/C [26] 38.6% | viability, T/C [27] 36.6% | viability, T/C [28] 36.7% | viability, T/C [29] 29.4% | viability, T/C [30] 29.8% | viability, T/C [31] 32.8% | viability, T/C [32] 31% | viability, T/C [33] 28.4% | viability, T/C [34] 30.9% | viability, T/C [35] 28.9% | viability, T/C [36] 26.6%
114 nM: IC50 (second compound 0.0316 µM)

Cn1ncnc1[C@H]1c2n[nH]c(=O)c3cc(F)cc(c23)N[C@@H]1c1ccc(F)cc1 + Cc1[nH]c2ccc(F)cc2c1-c1nc2c3cccnc3c3ncccc3c2[nH]1
> 316 nM: IC50 (second compound 0.0316 µM) | IC50 (second compound 0.1 µM) | IC50 (second compound 0.316 µM) | IC50 (second compound 1 µM) | IC50 (second compound 10 µM)
257 nM: IC50 (second compound 3.16 µM)
inactive: viability, T/C [1] 96.6% | viability, T/C [2] 83.2% | viability, T/C [3] 83.7% | viability, T/C [4] 75.4% | viability, T/C [5] 66.8% | viability, T/C [6] 64.4% | viability, T/C [7] 93% | viability, T/C [8] 93% | viability, T/C [9] 91.7% | viability, T/C [10] 75.5% | viability, T/C [11] 67.1% | viability, T/C [12] 57.6% | viability, T/C [13] 92.7% | viability, T/C [14] 92% | viability, T/C [15] 82.6% | viability, T/C [16] 82.4% | viability, T/C [17] 69.1% | viability, T/C [18] 57.2% | viability, T/C [19] 91% | viability, T/C [20] 85.4% | viability, T/C [21] 79.1% | viability, T/C [22] 72.6% | viability, T/C [23] 66.6% | viability, T/C [24] 54.2% | viability, T/C [25] 74% | viability, T/C [26] 66.6% | viability, T/C [27] 65.1% | viability, T/C [28] 61.2% | viability, T/C [29] 52.3% | viability, T/C [30] 49.4% | viability, T/C [31] 73.7% | viability, T/C [32] 77.7% | viability, T/C [33] 66.5% | viability, T/C [34] 60.2% | viability, T/C [35] 55.9% | viability, T/C [36] 51.8%

CC1COCCN1c1cc(C2(S(C)(=N)=O)CC2)nc(-c2ccnc3[nH]ccc23)n1 (stereo not drawn) + CN(C)c1ccc(Nc2c3ccc(NC(=O)CCN4CCCC4)cc3nc3cc(NC(=O)CCN4CCCC4)ccc23)cc1
< 31.6 nM: IC50 (second compound 10 µM)
2780 nM: IC50 (second compound 1 µM)
3490 nM: IC50 (second compound 0.0316 µM)
3810 nM: IC50 (second compound 0.316 µM)
3050 nM: IC50 (second compound 3.16 µM)
inactive: viability, T/C [4] 101% | viability, T/C [37] 103% | viability, T/C [6] 103% | viability, T/C [38] 74.2% | viability, T/C [39] 54.6% | viability, T/C [40] 34.9% | viability, T/C [10] 115% | viability, T/C [41] 96.1% | viability, T/C [12] 97.1% | viability, T/C [42] 84.6% | viability, T/C [43] 53.1% | viability, T/C [44] 34.5% | viability, T/C [16] 109% | viability, T/C [45] 94.7% | viability, T/C [18] 101% | viability, T/C [46] 82.9% | viability, T/C [47] 52.8% | viability, T/C [48] 35.4% | viability, T/C [22] 98% | viability, T/C [49] 87.8% | viability, T/C [24] 95.4% | viability, T/C [50] 70.1% | viability, T/C [51] 49% | viability, T/C [52] 33.7% | viability, T/C [28] 86.3% | viability, T/C [53] 85.1% | viability, T/C [30] 84.4% | viability, T/C [54] 66.9% | viability, T/C [55] 50.7% | viability, T/C [56] 32.8% | viability, T/C [34] 37% | viability, T/C [57] 38.2% | viability, T/C [36] 36% | viability, T/C [58] 32.6% | viability, T/C [59] 28% | viability, T/C [60] 19.9%
4430 nM: IC50 (second compound 0.1 µM)

C=CCn1c(=O)c2cnc(Nc3ccc(N4CCN(C)CC4)cc3)nc2n1-c1cccc(C(C)(C)O)n1 + Cc1[nH]c2ccc(F)cc2c1-c1nc2c3cccnc3c3ncccc3c2[nH]1
361 nM: IC50 (second compound 3.16 µM)
165 nM: IC50 (second compound 10 µM)
645 nM: IC50 (second compound 0.0316 µM)
inactive: viability, T/C [4] 105% | viability, T/C [37] 100% | viability, T/C [6] 73.3% | viability, T/C [38] 35.1% | viability, T/C [39] 22.2% | viability, T/C [40] 16.2% | viability, T/C [10] 103% | viability, T/C [41] 97.9% | viability, T/C [12] 73.9% | viability, T/C [42] 40.4% | viability, T/C [43] 22.6% | viability, T/C [44] 17.4% | viability, T/C [16] 101% | viability, T/C [45] 93.9% | viability, T/C [18] 67.9% | viability, T/C [46] 37.2% | viability, T/C [47] 21.8% | viability, T/C [48] 16% | viability, T/C [22] 87.1% | viability, T/C [49] 97.8% | viability, T/C [24] 67.3% | viability, T/C [50] 33.3% | viability, T/C [51] 19.3% | viability, T/C [52] 15.6% | viability, T/C [28] 69.3% | viability, T/C [53] 69.4% | viability, T/C [30] 51.5% | viability, T/C [54] 29.8% | viability, T/C [55] 18.6% | viability, T/C [56] 14.8% | viability, T/C [34] 58.2% | viability, T/C [57] 55% | viability, T/C [36] 43.4% | viability, T/C [58] 26.2% | viability, T/C [59] 17.9% | viability, T/C [60] 16.6%
720 nM: IC50 (second compound 0.1 µM)
623 nM: IC50 (second compound 0.316 µM)
577 nM: IC50 (second compound 1 µM)
